The values below come from the supplement of paper PMC11003180.

What all share (test): drug sensitivity score (DSS) from 5-dose viability curve (DSS (area-based score, 0 = no response)); higher = more sensitive (stronger viability inhibition); extreme values may be limits of the assay
Test [1] relates to MDCK wild-type + doxycycline. The note with it: doxycycline: 10 ng/mL; 72 h. In short, it runs like this: (§1)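 Parental MDCK cells and MDCK cells with doxycycline-inducible p60AmotL2, both given doxycycline at 10 ng/mL in the medium before plating, were dispensed at 2000 cells/well onto pre-spotted 384-well plates. The plates held an oncology library of 528 drugs at five doses (1-10,000 nM) and were incubated 72 h at 37 °C. Viability was read as CellTiter-Glo luminescence and scaled per plate between vehicle and positive controls. Drug sensitivity scores came from dose-response curve fits in the Breeze pipeline.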

The subject of test [2] is MDCK p60AmotL2-inducible + doxycycline (p60AmotL2 expressing). The note with it: doxycycline: 10 ng/mL; 72 h. In short, it runs like this: as §1
Test [3] has as its system MDCK wild-type - doxycycline. The note with it: doxycycline: none; 72 h. In short, it runs like this: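 Parental MDCK cells, grown without doxycycline, were seeded at 2000 cells/well into 384-well plates pre-spotted with an oncology library of 528 drugs at five doses (1-10,000 nM). After 72 h at 37 °C, CellTiter-Glo luminescence was read. Viability was scaled per plate between vehicle and positive controls, and drug sensitivity scores were derived from dose-response curve fits in the Breeze pipeline.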

As for `O=C(c1ccc(OCCN2CCCCC2)cc1)c1c(-c2ccc(O)cc2)sc2cc(O)ccc12` [Raloxifene], the drug sensitivity score was determined as 5.2 in test [1], 6.1 in test [2] and 5.2 in test [3].

Consider `Cc1nc(=O)c2cc(CN(C)c3ccc(C(=O)N[C@@H](CCC(=O)O)C(=O)O)s3)ccc2[nH]1` [Raltitrexed], for which the drug sensitivity score is 3.3 in test [1], 5 in test [2] and 3 in test [3].

Turning to `Cn1nccc1Nc1nccc(-c2ccn([C@H](CO)c3ccc(Cl)c(F)c3)c(=O)c2)n1` [Ravoxertinib], the drug sensitivity score in test [1] was determined as 0; in test [2], 0.2; in test [3], 0.

As to `CNC(=O)c1cc(Oc2ccc(NC(=O)Nc3ccc(Cl)c(C(F)(F)F)c3)c(F)c2)ccn1` [Regorafenib], the drug sensitivity score is 3.2 in test [1], 5.6 in test [2] and 3.2 in test [3].

With `CCOC(=O)C1=CCCC[C@H]1S(=O)(=O)Nc1ccc(F)cc1Cl` [Resatorvid], the drug sensitivity score in test [1], in test [2] and in test [3] was 0 in each case.

Take `CCOCc1nc2c(N)nc3ccccc3c2n1CC(C)(C)O` [Resiquimod]: the drug sensitivity score in test [1], in test [2] and in test [3] was 0 each time.

For the molecule `CN(C)Cc1ccc(S(=O)(=O)n2ccc(/C=C/C(=O)NO)c2)cc1` [Resminostat], the drug sensitivity score in test [1] was determined as 8.8; in test [2], 10.4; in test [3], 5.

On to `CN(C)C(=O)c1cc2cnc(Nc3ccc(N4CCNCC4)cn3)nc2n1C1CCCC1` [Ribociclib], for which the results for the drug sensitivity score in test [1], in test [2] and in test [3] were 0.8, 1.6 and 0, respectively.

For `CO[C@H]1C[C@@H]2CC[C@@H](C)[C@@](O)(O2)C(=O)C(=O)N2CCCC[C@H]2C(=O)O[C@H]([C@H](C)C[C@@H]2CC[C@@H](OP(C)(C)=O)[C@H](OC)C2)CC(=O)[C@H](C)/C=C(\C)[C@@H](O)[C@@H](OC)C(=O)[C@H](C)C[C@H](C)/C=C/C=C/C=C/1C` [Ridaforolimus], the drug sensitivity score in test [1] was 0.6; in test [2], 9.8; in test [3] it was 0.

Turning to `COc1cc(OC)c(/C=C/S(=O)(=O)Cc2ccc(OC)c(NCC(=O)O)c2)c(OC)c1` [Rigosertib], the drug sensitivity score was 26.5 in test [1], 26.8 in test [2] and 24 in test [3].

Regarding `C[C@H]1CNCCCN1S(=O)(=O)c1cccc2cncc(F)c12` [Ripasudil], the drug sensitivity score in test [1], in test [2] and in test [3] was 0 each time.

As to `C=CC(=O)Nc1cccc(Nc2nc(Nc3ccc(N4CCN(C(C)=O)CC4)cc3OC)ncc2C(F)(F)F)c1` [Rociletinib], the results for the drug sensitivity score in test [1], in test [2] and in test [3] were 6.7, 10.4 and 6.9, respectively.

For `O=C(CCCCCCNC(=O)c1cnc(N(c2ccccc2)c2ccccc2)nc1)NO` [Rocilinostat], the results for the drug sensitivity score in test [1], in test [2] and in test [3] were 4.9, 7.2 and 4.5, respectively.

As for `C/C=C1\NC(=O)[C@H]2CSSCC/C=C/[C@H](CC(=O)N[C@H](C(C)C)C(=O)N2)OC(=O)[C@H](C(C)C)NC1=O` [Romidepsin], the drug sensitivity score in test [1] was 19.7; in test [2], 24.9; in test [3], 18.1.

For `Cc1nc(C(=O)NCC(=O)O)c(O)c2ccc(Oc3ccccc3)cc12` [Roxadustat], the drug sensitivity score in test [1], in test [2] and in test [3] was 0 each time.

As for `CN(C)C[C@@H]1CCn2cc(c3ccccc32)C2=C(C(=O)NC2=O)c2cn(c3ccccc23)CCO1` [Ruboxistaurin], the drug sensitivity score in test [1] was 5.5; in test [2], 5.8; in test [3], 5.8.

`CNCc1ccc(-c2[nH]c3cc(F)cc4c3c2CCNC4=O)cc1` [Rucaparib]: the drug sensitivity score in test [1], in test [2] and in test [3] was 0 throughout.

In the case of `N#CC[C@H](C1CCCC1)n1cc(-c2ncnc3[nH]ccc23)cn1` [Ruxolitinib], the drug sensitivity score in test [1], in test [2] and in test [3] was 0 each time.

With `CC(C)N(CCCNC(=O)Nc1ccc(C(C)(C)C)cc1)C[C@H]1O[C@@H](n2cc(Br)c3c(N)ncnc32)[C@H](O)[C@@H]1O` [SGC0946], the drug sensitivity score in test [1], in test [2] and in test [3] was 0 in each case.

Turning to `COc1ccc(CCc2nc3cc(-c4c(C)noc4C)ccc3n2C[C@H](C)N2CCOCC2)cc1Cl` [SGC-CBP30], the drug sensitivity score is 2.7 in test [1], 4.3 in test [2] and 0 in test [3].

In the case of `CN1CCC(CNc2ccc3ncc(-c4cccc(OC(F)(F)F)c4)n3n2)CC1` [SGI-1776], the drug sensitivity score stood at 6.3 in test [1], 7.5 in test [2] and 6.6 in test [3].

For the molecule `CN(CC(=O)N(Cc1ccc(C2CCCCC2)cc1)c1ccc(C(=O)O)cc1)S(=O)(=O)c1c(F)c(F)c(F)c(F)c1F` [SH-4-54], the drug sensitivity score in test [1] is 3.9; in test [2] it was 3.7; in test [3] it was 5.1.

Turning to `CCc1c2c(nc3ccc(O)cc13)-c1cc3c(c(=O)n1C2)COC(=O)[C@]3(O)CC` [SN-38], the figures for the drug sensitivity score in test [1], in test [2] and in test [3] were 23.3, 24.8 and 21.1, respectively.

As to `CC(C)(C)c1cnc(CSc2cnc(NC(=O)C3CCNCC3)s2)o1` [SNS-032], the drug sensitivity score in test [1] stood at 17.8; in test [2], 19.1; in test [3], 16.3.

`Cc1cc2c(C(=O)NC[C@H](C)c3ccccc3)c(O)c(O)cc2c(O)c1-c1c(C)cc2c(C(=O)NC[C@H](C)c3ccccc3)c(O)c(O)cc2c1O` [Sabutoclax]: the values for the drug sensitivity score in test [1], in test [2] and in test [3] were 19.3, 23 and 13.9, respectively.

`CC[C@@H](C(=O)[C@@H](C)[C@@H](O)[C@H](C)[C@@H]1O[C@@H]([C@@H](CC)C(=O)O)CC[C@@H]1C)[C@H]1O[C@]2(C=C[C@@H](O)[C@]3(CC[C@@](C)([C@H]4CC[C@](O)(CC)[C@H](C)O4)O3)O2)[C@H](C)C[C@@H]1C` [Salinomycin]: the drug sensitivity score came out at 0.9 in test [1], 18.7 in test [2] and 0.4 in test [3].

As to `CC(C)n1nc(-c2ccc3oc(N)nc3c2)c2c(N)ncnc21` [Sapanisertib], the drug sensitivity score worked out at 9.8 in test [1], 13.4 in test [2] and 8.1 in test [3].

On to `CNC(=O)CN1CCC(Oc2cc3c(Nc4cccc(Cl)c4F)ncnc3cc2OC)CC1` [Sapitinib], for which the figures for the drug sensitivity score in test [1], in test [2] and in test [3] were 4.5, 12.9 and 1.2, respectively.

Turning to `CN1CCN(CCOc2cc(OC3CCOCC3)c3c(Nc4c(Cl)ccc5c4OCO5)ncnc3c2)CC1` [Saracatinib], the figures for the drug sensitivity score in test [1], in test [2] and in test [3] were 12.6, 19.5 and 12.6, respectively.

Turning to `CC1=C2C[C@H]3[C@@H](CC[C@@H]4C[C@H](NS(C)(=O)=O)CC[C@@]43C)[C@@H]2CC[C@@]2(C1)O[C@@H]1C[C@H](C)CN[C@H]1[C@H]2C` [Saridegib], the drug sensitivity score in test [1] came to 0; in test [2], 0.8; in test [3], 0.

Turning to `CC[C@H](CO)Nc1nc(NCc2ccccc2)c2ncn(C(C)C)c2n1` [Seliciclib], the drug sensitivity score in test [1] came out at 1.2; in test [2] it was 2.4; in test [3], 0.

As to `O=C(/C=C\n1cnc(-c2cc(C(F)(F)F)cc(C(F)(F)F)c2)n1)NNc1cnccn1` [Selinexor], the drug sensitivity score in test [1] was 16.4; in test [2], 16.7; in test [3] it was 15.1.

`Cc1cc(F)c(C(=O)Nc2cccc(-c3nncn3C(C)C)n2)cc1-n1cnc(C2CC2)c1` [Selonsertib]: the drug sensitivity score in test [1], in test [2] and in test [3] was 0 in each case.

Take `Cn1cnc2c(F)c(Nc3ccc(Br)cc3Cl)c(C(=O)NOCCO)cc21` [Selumetinib]: the drug sensitivity score in test [1] was 4.1; in test [2], 10.1; in test [3], 0.9.

`CN1CCN(C(=O)c2ccc3cc(CCNc4ncnc5ccc(C#N)cc45)ccc3c2)CC1` [Senexin B]: the drug sensitivity score worked out at 0.1 in test [1], 0.6 in test [2] and 0 in test [3].

Take `COCC[n+]1c2c(n(Cc3cnccn3)c1C)C(=O)c1ccccc1C2=O` [Sepantronium bromide]: the drug sensitivity score in test [1] was determined as 30.1; in test [2], 34.3; in test [3] it was 26.6.

As for `Nc1nc2cc(-c3ccc4ncc(C(=O)N5CCOCC5)n4c3)ccc2o1` [Serabelisib], the results for the drug sensitivity score in test [1], in test [2] and in test [3] were 0.1, 1.3 and 0, respectively.
